Source: patent publication US20250041380A1, “R[…] FOR SARS-COV2 DISEASE” (priority 2021, published 2025)
Read-outs that look alike come from different tables or passages of the source.

Experiments:
[1] = test system: Endothelial cells (EA.hy926); assay: cells; format: cell-based; conditions: Spike S1 Protein (1 μg/ml); for inhibition at 0.1 µM / inhibition at 1 µM / inhibition at 10 µM / inhibition at 20 µM: Homo sapiens, EA.hy 926
Bone cells (MG-63) = assay: cells; format: cell-based; conditions: Spike S1 Protein (10 μg/ml); for inhibition at 0.1 µM / inhibition at 1 µM / inhibition at 10 µM / inhibition at 20 µM: Homo sapiens, MG-63
Bladder cells (T24) = assay: tissue or blood; format: cell-based; conditions: Spike S1 Protein (5 μg/ml)
Immune (THP-1) cells = assay: in vitro; format: cell-based, Human; conditions: 48 h
Method: (§1) A549 cells were plated in DMEM+10% FBS at a density of 10,000 cells/well in 96-well culture plates and incubated at 37° C. for 24 h. THP-1 cells were plated in RPMI+10% FBS at a density of 10,000 cells/well in 96-well culture plates and incubated at 37° C. for 24 h. Cells were sera-starved for 24 h. […] Untreated cells were used as control. Cells treated with dexamethasone and hydroxychloroquine were included as positive control. After treatment, cells were incubated in a 5% CO2 incubator for 48 h.

Lung (A549) cells = assay: in vitro; format: cell-based, Human; conditions: 48 h
Method: as §1

Cardiac cells (H9C2) = assay: cells; format: cell-based; conditions: Spike S1 Protein (5 μg/ml); for inhibition at 0.1 µM / inhibition at 1 µM / inhibition at 10 µM / inhibition at 20 µM: Rattus norvegicus, H9c2
Kidney cells (HEK-293) = assay: cells; format: cell-based; conditions: Spike S1 Protein (100 ng/ml); for inhibition at 0.1 µM / inhibition at 1 µM / inhibition at 10 µM / inhibition at 20 µM: Homo sapiens, HEK293
Colon cells (HT-29) = assay: cells; format: cell-based; conditions: Spike S1 Protein (1 μg/ml); for inhibition at 0.1 µM / inhibition at 1 µM / inhibition at 10 µM / inhibition at 20 µM: Homo sapiens, HT-29
[2] = test system: pancreatic cells (PANC-1); assay: cells; format: cell-based; conditions: Spike S1 Protein (20 μg/ml)+
liver cells (HepG2) = assay: cells; format: cell-based; conditions: Spike S1 Protein (20 μg/ml)
[3] = 0.1 μM, read-out: % Inhibition (wrt Control), IL-6
[4] = 0.1 μM, read-out: % Inhibition (wrt Control), IL-8
[5] = 1 μM, read-out: % Inhibition (wrt Control), IL-6
[6] = 1 μM, read-out: % Inhibition (wrt Control), IL-8
[7] = 10 μM, read-out: % Inhibition (wrt Control), IL-6
[8] = 10 μM, read-out: % Inhibition (wrt Control), IL-8
[9] = 20 μM, read-out: % Inhibition (wrt Control), IL-6
[10] = 20 μM, read-out: % Inhibition (wrt Control), IL-8
[11] = 0.1 μM, read-out: % Inhibition (IL-6)
[12] = 0.1 μM, read-out: % Inhibition (IL-8)
[13] = 1 μM, read-out: % Inhibition (IL-6)
[14] = 1 μM, read-out: % Inhibition (IL-8)
[15] = 10 μM, read-out: % Inhibition (IL-6)
[16] = 10 μM, read-out: % Inhibition (IL-8)
[17] = 20 μM, read-out: % Inhibition (IL-6)
[18] = 20 μM, read-out: % Inhibition (IL-8)

## C[C@@H]1C[C@H]2[C@@H]3CCC4=CC(=O)C=C[C@]4(C)[C@@]3(F)[C@@H](O)C[C@]2(C)[C@@]1(O)C(=O)CO [Dexamethasone]
[1]; 0.1 μM
  Con. of IL-8: 1208.6 pg/mL
[1]; 1 μM
  Con. of IL-8: 1250.3 pg/mL
  Conc. of IL-6: 42.9 pg/mL
[1]; 10 μM
  Con. of IL-8: 1633.7 pg/mL
  Conc. of IL-6: 53.9 pg/mL
[1]; 20 μM
  Con. of IL-8: 1766.1 pg/mL
  Conc. of IL-6: 72.9 pg/mL
[1]; 0.1 μM, read-out: % Inhibition (wrt, IL-6)
  inhibition at 0.1 µM: 85.7%
[1]; 0.1 μM, read-out: % Inhibition (wrt, IL-8)
  inhibition at 0.1 µM: 25.2%
[1]; 1 μM, read-out: % Inhibition (wrt, IL-6)
  inhibition at 1 µM: 87.3%
[1]; 1 μM, read-out: % Inhibition (wrt, IL-8)
  inhibition at 1 µM: 22.6%
[1]; 10 μM, read-out: % Inhibition (wrt, IL-6)
  inhibition at 10 µM: 84%
[1]; 10 μM, read-out: % Inhibition (wrt, IL-8)
  inhibition at 10 µM: 0%
[1]; 20 μM, read-out: % Inhibition (wrt, IL-6)
  inhibition at 20 µM: 78.4%
[1]; 20 μM, read-out: % Inhibition (wrt, IL-8)
  inhibition at 20 µM: 0%
Bone cells (MG-63); 0.1 μM
  Con. of IL-8: 407.8 pg/mL
  Conc. of IL-6: 49.3 pg/mL
Bone cells (MG-63); 1 μM
  Con. of IL-8: 355.6 pg/mL
  Conc. of IL-6: 50.9 pg/mL
Bone cells (MG-63); 10 μM
  Con. of IL-8: 400.6 pg/mL
  Conc. of IL-6: 46.2 pg/mL
Bone cells (MG-63); 20 μM
  Con. of IL-8: 427.8 pg/mL
  Conc. of IL-6: 52.0 pg/mL
Bone cells (MG-63); [3]
  inhibition at 0.1 µM: 69.2%
Bone cells (MG-63); [4]
  inhibition at 0.1 µM: 42.4%
Bone cells (MG-63); [5]
  inhibition at 1 µM: 68.2%
Bone cells (MG-63); [6]
  inhibition at 1 µM: 49.8%
Bone cells (MG-63); [7]
  inhibition at 10 µM: 71.1%
Bone cells (MG-63); [8]
  inhibition at 10 µM: 43.4%
Bone cells (MG-63); [9]
  inhibition at 20 µM: 67.5%
Bone cells (MG-63); [10]
  inhibition at 20 µM: 39.6%
Bladder cells (T24); 0.1 μM
  Con. of IL-8: 2458.5
  Conc. of IL-6: 292.2
Bladder cells (T24); [11]
  inhibition at 0.1 µM: 49.4%
Bladder cells (T24); [12]
  inhibition at 0.1 µM: 42.5%
Bladder cells (T24); 1 μM
  Con. of IL-8: 2008.8
  Conc. of IL-6: 348.5
Bladder cells (T24); [13]
  inhibition at 1 µM: 39.7%
Bladder cells (T24); [14]
  inhibition at 1 µM: 53%
Bladder cells (T24); 10 μM
  Con. of IL-8: 2198.1
  Conc. of IL-6: 369.4
Bladder cells (T24); [15]
  inhibition at 10 µM: 36%
Bladder cells (T24); [16]
  inhibition at 10 µM: 48.6%
Bladder cells (T24); 20 μM
  Con. of IL-8: 2386.4
  Conc. of IL-6: 365.4
Bladder cells (T24); [17]
  inhibition at 20 µM: 36.7%
Bladder cells (T24); [18]
  inhibition at 20 µM: 44.2%
Immune (THP-1) cells; 0.1 μM
  % Viability: 110.0%
Immune (THP-1) cells; 1 μM
  % Viability: 98.2%
Immune (THP-1) cells; 5 μM
  % Viability: 83.1%
Immune (THP-1) cells; 10 μM
  % Viability: 95.6%
Immune (THP-1) cells; 20 μM
  % Viability: 104.3%
Lung (A549) cells; 0.1 μM
  % Viability: 122.7%
Lung (A549) cells; 1 μM
  % Viability: 76.3%
Lung (A549) cells; 5 μM
  % Viability: 90.0%
Lung (A549) cells; 10 μM
  % Viability: 82.6%
Lung (A549) cells; 20 μM
  % Viability: 69.5%
Cardiac cells (H9C2); 0.1 μM
  Con. of IL-8: 31.2
  Conc. of IL-6: 50.8
Cardiac cells (H9C2); 1 μM
  Con. of IL-8: 18.6
  Conc. of IL-6: 44.5
Cardiac cells (H9C2); 10 μM
  Con. of IL-8: 29.1
  Conc. of IL-6: 53.3
Cardiac cells (H9C2); 20 μM
  Con. of IL-8: 48.7
  Conc. of IL-6: 51.8
Cardiac cells (H9C2); [11]
  inhibition at 0.1 µM: 90%
Cardiac cells (H9C2); [12]
  inhibition at 0.1 µM: 97.8%
Cardiac cells (H9C2); [13]
  inhibition at 1 µM: 91.2%
Cardiac cells (H9C2); [14]
  inhibition at 1 µM: 98.7%
Cardiac cells (H9C2); [15]
  inhibition at 10 µM: 89.5%
Cardiac cells (H9C2); [16]
  inhibition at 10 µM: 98%
Cardiac cells (H9C2); [17]
  inhibition at 20 µM: 89.7%
Cardiac cells (H9C2); [18]
  inhibition at 20 µM: 96.6%
Kidney cells (HEK-293); 0.1 μM
  Con. of IL-8: 447.3 pg/mL
  Conc. of IL-6: 64.5 pg/mL
Kidney cells (HEK-293); 1 μM
  Con. of IL-8: 453.6 pg/mL
  Conc. of IL-6: 65.6 pg/mL
Kidney cells (HEK-293); 10 μM
  Con. of IL-8: 551.8 pg/mL
  Conc. of IL-6: 79.6 pg/mL
Kidney cells (HEK-293); 20 μM
  Con. of IL-8: 292.7 pg/mL
  Conc. of IL-6: 42.6 pg/mL
Kidney cells (HEK-293); [3]
  inhibition at 0.1 µM: 75.2%
Kidney cells (HEK-293); [4]
  inhibition at 0.1 µM: 76.6%
Kidney cells (HEK-293); [5]
  inhibition at 1 µM: 74.8%
Kidney cells (HEK-293); [6]
  inhibition at 1 µM: 76.3%
Kidney cells (HEK-293); [7]
  inhibition at 10 µM: 69.4%
Kidney cells (HEK-293); [8]
  inhibition at 10 µM: 71.2%
Kidney cells (HEK-293); [9]
  inhibition at 20 µM: 83.6%
Kidney cells (HEK-293); [10]
  inhibition at 20 µM: 84.7%
Colon cells (HT-29); 0.1 μM
  Con. of IL-8: 44.1 pg/mL
  Conc. of IL-6: 106.0 pg/mL
Colon cells (HT-29); 1 μM
  Con. of IL-8: 18.2 pg/mL
  Conc. of IL-6: 89.1 pg/mL
Colon cells (HT-29); 10 μM
  Con. of IL-8: 53.5 pg/mL
  Conc. of IL-6: 73.6 pg/mL
Colon cells (HT-29); 20 μM
  Con. of IL-8: 66.4 pg/mL
  Conc. of IL-6: 109.0 pg/mL
Colon cells (HT-29); [3]
  inhibition at 0.1 µM: 55%
Colon cells (HT-29); [4]
  inhibition at 0.1 µM: 93.4%
Colon cells (HT-29); [5]
  inhibition at 1 µM: 62.2%
Colon cells (HT-29); [6]
  inhibition at 1 µM: 97.3%
Colon cells (HT-29); [7]
  inhibition at 10 µM: 68.8%
Colon cells (HT-29); [8]
  inhibition at 10 µM: 92%
Colon cells (HT-29); [9]
  inhibition at 20 µM: 53.8%
Colon cells (HT-29); [10]
  inhibition at 20 µM: 90.1%
[2]; 0.1 μM
  Conc. of IL-8: 330.5 pg/mL
[2]; 1 μM
  Conc. of IL-8: 296.2 pg/mL
[2]; 10 μM
  Conc. of IL-8: 342.8 pg/mL
[2]; 20 μM
  Conc. of IL-8: 255.7 pg/mL
[2]; Homo sapiens, PANC-1, 0.1 μM, read-out: % Inhibition (wrt Control ), IL-8
  inhibition at 0.1 µM: 55.7%
[2]; Homo sapiens, PANC-1, 1 μM, read-out: % Inhibition (wrt Control ), IL-8
  inhibition at 1 µM: 60.3%
[2]; Homo sapiens, PANC-1, 10 μM, read-out: % Inhibition (wrt Control ), IL-8
  inhibition at 10 µM: 54.1%
[2]; Homo sapiens, PANC-1, 20 μM, read-out: % Inhibition (wrt Control ), IL-8
  inhibition at 20 µM: 65.7%
Liver cells (HepG2); 0.1 μM
  Conc. of IL-8: 91.4 pg/mL
Liver cells (HepG2); 1 μM
  Conc. of IL-8: 21.5 pg/mL
Liver cells (HepG2); 10 μM
  Conc. of IL-8: 64.4 pg/mL
Liver cells (HepG2); 20 μM
  Conc. of IL-8: 23.9 pg/mL
Liver cells (HepG2); Homo sapiens, HepG2, 0.1 μM, read-out: % Inhibition (wrt Control ), IL-8
  inhibition at 0.1 µM: 81.7%
Liver cells (HepG2); Homo sapiens, HepG2, 1 μM, read-out: % Inhibition (wrt Control ), IL-8
  inhibition at 1 µM: 95.7%
Liver cells (HepG2); Homo sapiens, HepG2, 10 μM, read-out: % Inhibition (wrt Control ), IL-8
  inhibition at 10 µM: 87.1%
Liver cells (HepG2); Homo sapiens, HepG2, 20 μM, read-out: % Inhibition (wrt Control ), IL-8
  inhibition at 20 µM: 95.2%
